# Assay results from the METLIN SMRT retention time set (Domingo-Almenara et al. 2019).
# Test: gradient 5% acetonitrile 3 min, to 50% in 2 min, to 85% in 15 min, held 3 min, 100 µL/min
# Conditions: column: Zorbax Extend-C18 2.1 x 50 mm; eluents: water / acetonitrile, 0.1% formic acid
# Method in brief: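 Retention times come from adduct peaks that were picked computationally and then checked by hand. The standards, pure and pooled in mixtures of ~100 molecules, were run on a Zorbax Extend-C18 column (2.1 × 50 mm, 1.8 μm) at 100 μL/min with water and acetonitrile, each with 0.1% formic acid. Detection was by quadrupole time-of-flight mass spectrometry in positive and negative ionization mode, with a dead volume of 40 μL and a dwell volume of 900 μL.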
row,RP-LC retention time [s],SMILES
1,913,CCOC(=O)c1csc(NC(=O)c2csc3nc(-c4ccc(F)cc4)cn23)n1
2,792,CCn1ncn2cc(S(=O)(=O)Nc3ccc(Cl)cc3)cc2c1=O
3,963,COc1ccc(-c2nc(C3CC(=O)N(c4ccc(F)c(Cl)c4)C3)no2)cc1OC (stereo not given)
4,657,O=C(NCc1[nH]nc2ccccc12)c1cccc2[nH]ccc12
5,753,COc1ccccc1-c1noc(C2CCCN2C(=O)NC(C)C)n1 (stereo not given)
6,704,COc1ccccc1OCCNC(=O)Cn1nc2c(cc1=O)CCCC2
7,736,CCOC(=O)N1CCN(S(=O)(=O)c2ccc(C(=O)Nc3cc(C)no3)cc2)CC1
8,921,CCCc1nnsc1C(=O)NCC(c1cccs1)S(=O)(=O)c1ccc(C)cc1 (stereo not given)
9,683,CCOc1ccc(-n2c(N3CCN(CC)CC3)nc3cc(C(=O)OC)ccc3c2=O)cc1
10,1020,COc1ccc(OC)c(NC(=O)Cn2cccc2-c2nnc(-c3ccccc3)o2)c1
11,887,Cc1ccc(S(=O)(=O)CCc2noc(-c3cccc4[nH]ccc34)n2)cc1
12,801,CCc1ccc(CN2C(=O)c3c(C(=O)OC)ncn3CC2(C)C(=O)NCc2ccccc2)cc1 (stereo not given)
13,1130,CCn1c(C(=O)NCc2ccccc2OC)cc2sc(Cl)cc21
14,846,O=C(NCc1ccco1)Nc1cccc([N+](=O)[O-])c1
15,559,CSc1ccccc1NC(=O)C(=O)NN1CCN(C)CC1
16,832,C[C@H]1CC2C3CCC4=CC(=O)C=C[C@]4(C)[C@@]3(Cl)[C@@H](O)C[C@]2(C)[C@@]1(O)C(=O)CO (stereo not given in full)
17,962,O=C(Nc1nccn(-c2ccc3c(c2)CCC3)c1=O)c1ccc(Cl)cc1
18,832,CCCN(CC1CCOC1)C(=O)Nc1ccccc1Br (stereo not given)
19,578,O=C(NCC(c1ccsc1)N1CCCC1)Nc1ccc(Cl)cc1 (stereo not given)
20,1120,CCn1cc(-c2nc(C(=O)Nc3ccccc3C)cs2)c2cccnc21
21,586,Cc1ccc(F)cc1S(=O)(=O)N1CCN(c2nc3ccncc3n(C)c2=O)CC1
22,800,Cc1cc2nn(CC(=O)Nc3ccccc3)c(=O)n2c(-c2ccc(F)cc2)n1
23,877,CC1(C)CC(=O)C2=C(C1)N=C1SCCC(=O)N1C2c1ccc(Cl)cc1 (stereo not given)

row,RP-LC retention time [s],SMILES
1,1100,CCc1nc(-c2cccc(-c3noc(CNC(=O)Cc4ccc(Cl)cc4)n3)c2)cs1
2,1030,O=c1oc(-c2ccccc2)c(-c2ccccc2)c2ccccc12
3,1110,Cc1ccccc1Oc1nccnc1N1CCC(C(=O)NCCC2=CCCCC2)CC1
4,996,O=C(CCc1conc1-c1ccc(F)cc1)NCC1CCCCC1
5,588,CCOC(=O)CNC(=O)N1CCN(CCn2c(C(F)(F)F)nc3cccnc32)CC1
6,686,O=S(=O)(c1cccc(F)c1)N1CC(c2nc(CCOCC3CCOCC3)no2)C1
7,550,Cc1scc2nc(C(=O)N3CCN(C4CCCC4)CC3)nc(N3CCCC3)c12
8,617,COc1cc2c(cc1OC)C1C(C(=O)NCCCN3CCCCCC3)c3ccccc3C(=O)N1CC2 (stereo not given)
9,983,Cc1cc(C)cc(C(=O)N2CCCC(C(=O)Nc3c(C)cc(C)cc3C)C2)c1 (stereo not given)
10,726,CN1c2ccccc2C(=O)NC12CCN(C(=O)Nc1cccc(F)c1)CC2
11,932,Cc1cccc(N2CCN(C(=O)c3cn(-c4cc(N5CCSCC5)ncn4)cn3)CC2)c1
12,641,CCCN(C)C(=O)c1ccc2nc(-c3ccc(C)cc3)cn2c1
13,890,COCCNS(=O)(=O)c1ccc(-c2ccc(C)cc2)cc1
14,1140,Cc1ccc(C)c(NS(=O)(=O)c2c(C)sc(C)c2-c2n[nH]c(C)c2C)c1
15,781,Cn1c(=O)c2nc(S(=O)(=O)CCC(=O)Nc3ccc(Cl)cc3F)n(C)c2n(C)c1=O
16,626,Cc1ccc(N2CCN(C(=O)c3cn4c(n3)CCCC4)CC2)cc1
17,838,CCN1C(=O)COc2ccc(-c3csc(NC(=O)C4CCCO4)n3)cc21 (stereo not given)
18,647,CCN1C(=O)CCc2cc(NC(=O)Cc3ccc(OC)cc3Cl)ccc21
19,614,CCc1nn(CC(=O)N2CCC(C(N)=O)CC2)c(=O)c2cc3sccc3n12
20,802,CCOC(=O)C1CCN(C(=O)Cn2c(=O)c3cccn3c3ccc(F)cc32)CC1
21,742,Cc1noc(C)c1S(=O)(=O)NCC1CCN(C(=O)Nc2ccc(F)cc2)CC1
22,891,CCC(=O)N1CCc2cc(C(=O)NCCC3=CCCCC3)ccc21
23,677,O=S(=O)(NCc1ccc2c(c1)OCO2)N1CCOCC1

row,RP-LC retention time [s],SMILES
1,819,CCn1cc2c(n1)c(=O)n(Cc1ccccc1)c(=O)n2CC(=O)NCc1ccccc1
2,859,CC(C)n1c(N2CCCN(C(=O)c3ccc(F)c(F)c3)CC2)cc(=O)n(C(C)C)c1=O
3,1130,O=S(=O)(c1cccc(-c2nc(-c3ccccc3)no2)c1)N1CCCC1
4,819,CCC1CCCCN1C(=O)CSc1n[nH]c(-c2ccccc2)n1 (stereo not given)
5,1150,CCN1C(=O)COc2ccc(-c3nc(NC(=O)c4cccc(Br)c4)sc3C)cc21
6,1250,COc1ccc2c(c1)-c1nc(NC(=O)c3ccc(Br)cc3)sc1CC2
7,922,COCC(=O)Nc1cnc(-c2ccc(C(F)(F)F)cc2)nc1
8,833,O=C(c1cc(Cl)ccc1F)N1CCN(c2cc(-c3cccs3)[nH]n2)CC1
9,618,O=c1nc(-c2ccccc2)c2ccccc2[nH]1
10,919,CCOC(=O)C1=C(CN2CCN(c3ccccn3)CC2)NC(=O)NC1c1cccs1 (stereo not given)
11,644,CCc1noc([C@@H]2CC(F)(F)CN2C(=O)c2cn(C)cn2)n1
12,744,O=C(O)c1nnn(-c2cccc(F)c2)c1C(F)(F)F
13,994,Cc1ccc(-c2nc(C3CC(=O)N(c4ccc(Cl)cc4)C3)no2)c(C)c1 (stereo not given)
14,836,Cc1cccc(-n2c(=O)c3c(cc(C)n3C)n(CC(=O)Nc3ccccc3F)c2=O)c1
15,938,CN(C(=O)Cn1cnc2c(-c3ccccc3)csc2c1=O)c1ccc(F)cc1
16,946,CC(C)Oc1ccc(CNC(=O)C2CCCN(c3ccc(=O)n(-c4cccc(Cl)c4)n3)C2)cc1 (stereo not given)
17,822,CC(C)NC(=O)N1CCCC(c2cccc(C(=O)NCc3ccc4c(c3)OCO4)c2)C1 (stereo not given)
18,958,CCN1C=C(C(=O)OCc2ccccc2)C(C)=NS1(=O)=O
19,621,O=C(NCCCN1CCCCC1)c1cc(=O)n2c(nc3ccccc32)s1
20,577,CCn1cc(S(=O)(=O)N2CCCn3nc(-c4ccncc4)cc3C2)cn1
21,677,CC(C)(C)NC(=O)N1CC(c2nc(-c3cccnc3)no2)C2(CCOCC2)C1 (stereo not given)
22,800,COC(=O)c1c(C)[nH]c(C(=O)N2CCC(CC(=O)NCc3cccc(Br)c3)CC2)c1C
23,580,COC[C@@H]1CN(Cc2ccc(F)c(Cl)c2)C[C@H]1c1nc(C)no1

row,RP-LC retention time [s],SMILES
1,1020,Cc1ccc(-c2nc(-c3cccc(-c4ccn[nH]4)c3)no2)s1
2,655,O=C(Cn1cnc2nc(N3CCCC(C(=O)NC4CC4)C3)sc2c1=O)Nc1cccc(F)c1 (stereo not given)
3,662,CN(CCc1ccccn1)c1ccc2c(c1)C(=O)c1ccccc1-2
4,856,O=C(NC1CCCCCC1)C1CCCN(C(=O)c2ccc(F)c(F)c2)C1 (stereo not given)
5,1120,O=C1COc2ccccc2N1Cc1nc(-c2ccc(Cl)c(F)c2)no1
6,757,O=C(NCc1ccc(F)c(Cl)c1)C1CCCN(c2cnc3nccnc3c2)C1 (stereo not given)
7,637,CCn1cc(CN2CCCC(Cn3cc(COC)nn3)C2)c2cc(OC)ccc21 (stereo not given)
8,762,CCOc1ccc(CC(=O)N2C[C@@H]3C[C@H]2C[C@@H]3NC(=O)c2ccccc2)cc1
9,687,O=C(Cn1cnc2nc(N3CCOCC3)ncc2c1=O)NCc1cccc(C(F)(F)F)c1
10,891,COC(=O)c1ccc(CN2N=C(C(=O)N3CCC(C)CC3)S(=O)(=O)c3ccccc32)o1
11,656,O=C(C1CCN(S(=O)(=O)N2CCOCC2)CC1)N1CCC(c2nc(C3CCOCC3)no2)C1 (stereo not given)
12,610,CCCNC(=O)C1CCN(c2ccc(SCC(=O)Nc3ccc4c(c3)OCO4)nn2)CC1
13,1050,CCCCn1c(=O)c2ccccc2n(Cc2nc(-c3ccccc3OC)no2)c1=O
14,645,Cn1ncc2c3ccccc3n(CCCC(=O)NCCN3CCCCCC3)c2c1=O
15,764,Cc1cccc(CN2C(=O)CCc3c(C)nc(-c4ccncc4)nc32)c1
16,682,O=C1NCCCn2cc(S(=O)(=O)Nc3ccc(Cl)cc3)cc21
17,615,COc1cccc(-c2noc(C3CCCN3C(=O)NCc3ccco3)n2)c1 (stereo not given)
18,1010,COc1ccccc1N1CCN(S(=O)(=O)c2ccc(F)cc2C)CC1
19,708,COc1cccc(S(=O)(=O)N2CCOCC2)c1
20,586,CC1(C)Cc2cccc(OCc3ccc(C(=O)NCCN4CCOCC4)cc3)c2O1

row,SMILES,RP-LC retention time [s]
1,CC(C)CN1Cc2ccccc2-n2ccnc2C12CCN(C(=O)c1ccoc1)CC2,665
